According to patent US4091114A, “Pharmaceutically active 2-omega-aminoalkoxydiphenylmethanes” (Mitsubishi Chemical Industries Limited, priority 1976, dated 1978):
Structures can show the parent of a compound that is named as a salt.

Tests used:
[1] = system: reserpine induced hypothermia; test: Antireserpine activity in mice (antagonism of reserpine induced hypothermia); format: in vivo
[2] = in vivo; details: mouse, ip
[3] = system: mice; details: mouse, in vivo, ip
[4] = mice, i.p., reserpine 5 mg/kg i.p., Amitriptyline = 1

CN(C)CCCOc1ccccc1Cc1ccccc1 [2-(3-dimethylaminopropoxy)diphenylmethane hydrochloride]
antidepressant activity (in words) ([1]; mouse, in vivo): no such activity

CN(C)CCCCOc1ccccc1Cc1ccccc1.Cl [2-(4-dimethylaminobutoxy) diphenyl methane hydrochloride]
Antireserpine activity, Relative Potency ([1]; mouse, in vivo): 0

CCNCCCCOc1ccccc1Cc1ccccc1 [2-(4-ethylaminobutoxy)diphenylmethane hydrochloride]
Antireserpine activity, Relative Potency ([1]; mouse, in vivo): 0.53 | LD50 [2]: 120 mg/kg

CN(C)CCCCCOc1ccccc1Cc1ccccc1 [2-(5-dimethylaminopentyloxy)diphenylmethane hydrochloride]
Antireserpine activity, Relative Potency [1, 4]: 0.23 | antidepressant activity (in words) ([1]; mouse, in vivo): inferior antidepressant activity

CNCCCCCOc1ccccc1Cc1ccccc1 [2-(5-methylaminopentyloxy)diphenylmethane hydrochloride]
Antireserpine activity, Relative Potency ([1]; mouse, in vivo): 0.54 | LD50 [2]: 160 mg/kg

c1ccc(Cc2ccccc2OCCCCN2CCCCC2)cc1 [2-[4-(1-piperidyl)butoxy]diphenylmethane hydrochloride]
Antireserpine activity, Relative Potency [1, 4]: 0.41

CN(C)CCC=C1c2ccccc2CCc2ccccc21 [Amitriptyline]
LD50 [3]: 65 mg/kg
